In PMC12372887, “Mechanism and cellular actions of the potent AMPK inhibitor BAY-3827” (Science Advances, 2025):
Values joined by “and” are separate entries in the source; they are usually repeats but may differ in a detail not shown here. Equal entries are not always repeated. Where two headings read alike, the source gives them in different places.

Key:
[1] = test system: AMPKα1α2+/+ (control) primary hepatocytes; experiment: RNA-seq transcriptome analysis of primary hepatocytes; format: cell-based, mouse
Description: Primary hepatocytes were pretreated for 15 min with BAY-3827 5 μM at 37°C in MEM-199 supplemented with penicillin G (100 U/ml), streptomycin ([…]), and 100 nM dexamethasone followed by addition of MK-8722 10 μM treatment. Six hours posttreatment, the cells were washed twice with room-temperature PBS. RNA was isolated using QIAwave RNAeasy kit (catalog no. 74104) with on-column deoxyribonuclease (DNAse) treatment using Qiagen RNase-free DNase set (catalog no. 79256) following the manufacturer’s protocol. Messenger RNA-seq was performed by the Single-Cell Omics platform at the Novo Nordisk Foundation Center for Basic Metabolic Research. Libraries were prepared using the Universal Plus mRNA-seq protocol (Tecan) as recommended by the manufacturer. Libraries were quantified with NuQuant using the CLARIOstar Plate Reader (BMG Labtech), quality checked using a TapeStation instrument (Agilent Technologies), and subjected to 52–base pair paired-end sequencing on a NovaSeq 6000 (Illumina). The sequencing analysis pipeline nf-core ([69]) was used, with alignment and quantification selection of STAR and Salmon, and mouse GRCm38 set as the reference genome. Unique molecular identifier (UMI)-based deduplication was performed using UMI tools, and sorting and index alignments were completed with SAMtools as part of the pipeline. Differential expression analysis was carried out using the R package edgeR ([70]) and a batch-effect removal was performed in limma ([71]) to account for the variability induced by two mice (291 + 295) from which cells with the same treatments had been pooled to obtain the required cell confluence. Venn diagrams were produced using the R package ggvenn ([72]). […] Heatmaps of log2 counts per million normalized counts were produced using R package pheatmap ([73]). GO enrichment analysis was performed using the R package clusterProfiler version 4.6.2 ([74]) setting FDR < 0.05 with reference organism specified as mouse, pAdjustMethod was set to BH, and ontology category set to biological process, with a qvalueCutoff of 0.05. Visualization analyses were conducted in RStudio version 4.2.0 ([75]).

AMPK = test system: AMPK; set-up: method as in PMID 33492659; conditions: 2 μM AMP, cited from earlier work
mouse primary adipocytes = experiment: Glucose uptake of primary adipocytes; format: cell-based; conditions: varying doses
[2] = biological target: T1, nonphosphorylated AMPKα2β2γ1 complex (Homo sapiens, UniProt O43741+P54619+P54646); experiment: Spectral shift (Dianthus) binding assay; conditions: read-out: dissociation constant (Kd)
T1 construct: For expression of full-length AMPKα2β2γ1, α2β2γ2, and α2β2γ3 complexes; made in house; host or cells: E. coli BL21(DE3)-RIL
Description: (§1) The binding affinity of BAY-3827 to α2KD, AMPK (T172D)-α2KD, or AMPK complexes α2β2γ1 and α2β2γ3 was measured by Dianthus (Nano Temper Technologies). BAY-3827 was diluted from a 100 mM stock in DMSO to 0.5 mM working concentration in the assay buffer (PBS with 0.005% Tween-20) with a final DMSO concentration of 2.5%, which was kept constant throughout the concentration gradient of the compound. For additional experiments, assay buffer containing Hepes 25 mM, NaCl 250 mM, and 0.005% Tween-20 was used to optimize the assay, enhancing signal-to-noise ratios. His-tagged α2KD, T172D-α2KD, or His-tagged AMPK-α2β2γ1 or α2β2γ3 complexes were labeled with His-tag labeling dye (His-Tag Labeling Kit RED-tris-NTA 2nd Generation). The ratio of fluorescence intensities (670/650 nm) over BAY-3827 concentration gradient ranging from 250 μM down to 0.015 μM. The concentration gradient was prepared by 1:1 serial dilution over 16 steps, with a setup of two to three technical replicates for each concentration. The binding experiments were repeated three times, and the mean Kd values of the inhibitor are reported in the appropriate figure alongside ± SEM (micromolar) displaying a representative graph. A concentration of 50 nM of the corresponding protein target was used in each performed assay. The ratio of fluorescence intensities was measured over BAY-3827 concentration gradient in GraphPad Prism using nonlinear regression (one site-total binding). Data quality was assessed by monitoring XYZ scans for each well to detect air bubbles or aggregation where present following the manufacturer’s instructions.
(§2) Data points are plotted as means ± SEM. Data were inputted, and all statistical tests were performed using GraphPad Prism, version 10.1.0. One- or two-way analysis of variance (ANOVA) statistical tests were conducted using Tukey’s correction for multiple comparisons; specific test will be stated in the figure legend. Significance was accepted as P < 0.05. N number and statistical details for each experiment are reported in each figure legend. […] To estimate IC50 values, nonlinear regression fitting was conducted using the model (Inhibitor) versus response—variable slope in GraphPad Prism (version 10.1.0) and estimating values reported in nanomolar. To estimate binding affinities (Kd) from performed spectral shift binding assays, data were fitted using a one-site total model [Y = BmaxX/(Kd + X) + NSX + Background] where X is the ligand concentration, Bmax represents the maximum binding, and NS is the slope of the nonlinear regression of Y/X. Values are reported in means ± SEM in micromolar.

[3] = biological target: T2, AMPKα2 kinase domain (α2KD), WT (Homo sapiens, UniProt P54646); experiment: Spectral shift (Dianthus) binding assay; conditions: read-out: dissociation constant (Kd)
T2 construct: human AMPK-α2 KD (α2KD; residues 6 to 280); made in house; host or cells: E. coli BL21(DE3)-RIL
Description: as §1, §2

AMPKα2 (T172D)–α2KD = biological target: T3, AMPKα2 (T172D)–α2KD (Homo sapiens, UniProt P54646, T172D); experiment: Spectral shift (Dianthus) binding assay; conditions: read-out: dissociation constant (Kd)
T3 construct: human AMPK-α2 KD (α2KD; residues 6 to 280); made in house; host or cells: E. coli BL21(DE3)-RIL
Description: as §1, §2

[4] = biological target: T4, nonphosphorylated AMPKα2β2γ3 complex (Homo sapiens, UniProt O43741+P54646+Q9UGI9); experiment: Spectral shift (Dianthus) binding assay; conditions: read-out: dissociation constant (Kd)
T4 construct: For expression of full-length AMPKα2β2γ1, α2β2γ2, and α2β2γ3 complexes; made in house; host or cells: E. coli BL21(DE3)-RIL
Description: as §1, §2

T2 sequence (P54646 6-280): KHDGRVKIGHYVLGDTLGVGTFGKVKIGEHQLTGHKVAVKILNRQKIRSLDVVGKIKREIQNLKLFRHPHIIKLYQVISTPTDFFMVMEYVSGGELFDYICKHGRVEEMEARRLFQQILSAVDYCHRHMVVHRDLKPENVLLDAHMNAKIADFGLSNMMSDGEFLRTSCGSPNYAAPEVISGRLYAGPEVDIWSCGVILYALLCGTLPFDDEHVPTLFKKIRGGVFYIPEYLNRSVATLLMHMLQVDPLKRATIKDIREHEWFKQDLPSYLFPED
T3 sequence (P54646 6-280 T172D): as the sequence (P54646 6-280) above, with T167D counted along it
T4 sequence (P54646 whole entry): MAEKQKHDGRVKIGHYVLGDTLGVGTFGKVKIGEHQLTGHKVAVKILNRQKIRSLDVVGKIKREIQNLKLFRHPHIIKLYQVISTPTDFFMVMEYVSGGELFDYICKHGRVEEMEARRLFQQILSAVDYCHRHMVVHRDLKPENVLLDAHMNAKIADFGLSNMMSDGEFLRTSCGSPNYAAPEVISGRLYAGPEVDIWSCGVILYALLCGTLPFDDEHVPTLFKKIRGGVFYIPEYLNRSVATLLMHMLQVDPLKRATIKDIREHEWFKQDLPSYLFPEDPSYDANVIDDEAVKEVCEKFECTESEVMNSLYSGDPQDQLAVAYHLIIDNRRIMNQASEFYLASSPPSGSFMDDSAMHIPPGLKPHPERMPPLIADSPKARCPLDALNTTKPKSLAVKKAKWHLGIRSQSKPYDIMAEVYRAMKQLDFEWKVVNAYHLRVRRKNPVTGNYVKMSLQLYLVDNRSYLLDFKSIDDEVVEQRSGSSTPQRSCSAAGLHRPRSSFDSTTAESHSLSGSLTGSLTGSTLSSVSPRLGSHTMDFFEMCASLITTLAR
T4 sequence (O43741 whole entry partner): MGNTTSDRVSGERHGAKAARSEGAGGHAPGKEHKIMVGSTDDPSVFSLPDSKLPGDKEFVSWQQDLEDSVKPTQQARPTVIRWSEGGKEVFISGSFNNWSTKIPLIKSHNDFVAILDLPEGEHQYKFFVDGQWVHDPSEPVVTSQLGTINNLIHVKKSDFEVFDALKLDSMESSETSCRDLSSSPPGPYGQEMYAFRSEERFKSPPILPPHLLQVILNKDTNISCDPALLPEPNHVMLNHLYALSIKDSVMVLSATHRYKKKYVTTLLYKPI
T4 sequence (Q9UGI9 whole entry partner): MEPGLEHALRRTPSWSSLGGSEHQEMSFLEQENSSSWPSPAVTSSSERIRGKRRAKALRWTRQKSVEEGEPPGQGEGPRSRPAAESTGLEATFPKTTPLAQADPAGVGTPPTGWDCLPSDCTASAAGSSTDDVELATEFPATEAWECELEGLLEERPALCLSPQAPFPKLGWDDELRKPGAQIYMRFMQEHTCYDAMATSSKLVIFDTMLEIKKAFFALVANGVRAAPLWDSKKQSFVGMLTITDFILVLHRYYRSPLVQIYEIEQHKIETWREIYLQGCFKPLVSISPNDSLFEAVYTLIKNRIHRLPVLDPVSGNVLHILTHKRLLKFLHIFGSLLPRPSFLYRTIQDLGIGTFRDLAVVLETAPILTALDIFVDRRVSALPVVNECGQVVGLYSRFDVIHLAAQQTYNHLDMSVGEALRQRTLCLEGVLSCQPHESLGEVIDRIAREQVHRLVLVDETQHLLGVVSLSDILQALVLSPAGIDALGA
T1 sequence (P54646 whole entry): as the sequence (P54646 whole entry) above
T1 sequence (O43741 whole entry partner): as the sequence (O43741 whole entry partner) above
T1 sequence (P54619 whole entry partner): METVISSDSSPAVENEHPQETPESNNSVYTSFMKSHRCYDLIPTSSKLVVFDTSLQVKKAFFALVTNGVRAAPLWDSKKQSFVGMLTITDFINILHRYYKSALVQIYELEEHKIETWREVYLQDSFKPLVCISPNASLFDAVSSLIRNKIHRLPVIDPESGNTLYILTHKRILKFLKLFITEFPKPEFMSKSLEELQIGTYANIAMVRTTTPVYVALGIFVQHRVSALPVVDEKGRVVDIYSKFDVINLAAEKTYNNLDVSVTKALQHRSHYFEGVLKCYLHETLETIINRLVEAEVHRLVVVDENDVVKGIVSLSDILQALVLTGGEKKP

SMILES: CCc1ccccc1C(=O)Nc1n[nH]c2c(C)c(F)c(C3C(C#N)=C(C)N(C)C(C)=C3C#N)cc12 [BAY-3827, N-[5-(3,5-dicyano-1,2,6-trimethyl-4H-pyridin-4-yl)-6-fluoro-7-methyl-1H-indazol-3-yl]-2-ethylbenzamide]
- LogFC ADORA2B ([1]; 5 μM + MK-8722 versus MK-8722): −1.3062
- LogFC AVPR1A ([1]; 5 μM + MK-8722 versus MK-8722): −1.708
- LogFC EHHADH ([1]; 5 μM + MK-8722 versus MK-8722): −1.5955
- LogFC HAL ([1]; 5 μM + MK-8722 versus MK-8722): −1.348
- LogFC HMGCR ([1]; 5 μM + MK-8722 versus MK-8722): −0.1621
- LogFC HPGD ([1]; 5 μM + MK-8722 versus MK-8722): −1.745
- LogFC LIPE ([1]; 5 μM + MK-8722 versus MK-8722): −0.2816
- LogFC LPIN2 ([1]; 5 μM + MK-8722 versus MK-8722): −0.5277
- LogFC PFKFB2 ([1]; 5 μM + MK-8722 versus MK-8722): −0.5421
- LogFC PLIN5 ([1]; 5 μM + MK-8722 versus MK-8722): −1.3
- LogFC SP1 ([1]; 5 μM + MK-8722 versus MK-8722): −0.4397
- LogFC TBC1D15 ([1]; 5 μM + MK-8722 versus MK-8722): −0.4895
- LogFC TBC1D17 ([1]; 5 μM + MK-8722 versus MK-8722): −0.5598
- MK-8722–stimulated AMPK-dependent genes down-regulated ([1]; 5 μM + MK-8722 versus MK-8722): ~ 30% and 30.1%
- logFC CALCOCO1 (RSK2 gene) ([1]; 5 μM + MK-8722 versus MK-8722): -0.7893
- logFC CENPE (RSK1 gene) ([1]; 5 μM + MK-8722 versus MK-8722): -1.28
- logFC CENPI (RSK1 gene) ([1]; 5 μM + MK-8722 versus MK-8722): -0.6534
- logFC CENPW (RSK1 gene) ([1]; 5 μM + MK-8722 versus MK-8722): -0.4735
- logFC DSN1 (RSK1 gene) ([1]; 5 μM + MK-8722 versus MK-8722): -0.789
- logFC FN1 (RSK1 gene) ([1]; 5 μM + MK-8722 versus MK-8722): -0.2178
- logFC MASTL (RSK1 gene) ([1]; 5 μM + MK-8722 versus MK-8722): -0.8494
- logFC NEK2 (RSK1 gene) ([1]; 5 μM + MK-8722 versus MK-8722): -1.199
- logFC SPC25 (RSK1 gene) ([1]; 5 μM + MK-8722 versus MK-8722): -0.6826
- logFC STAT5B ([1]; 5 μM + MK-8722 versus MK-8722): -0.6006
- differentially expressed genes that are down-regulated ([1]; 5 μM + MK-8722 versus MK-8722, 2511 significant genes): 61.2%
- PPARGC1A gene counts ([1]; 5 μM + MK-8722 versus MK-8722 alone): significantly reduced
- IC50 (AMPK; high (2 mM) ATP): 0.015 µM
- IC50 (AMPK; low (10 μM) ATP): 0.0014 µM
- basal and insulin-stimulated glucose uptake (mouse primary adipocytes): not significantly affected
- Kd [2]: 11.3 ± 5.23 µM
- Kd ([3]; +3 mM DTT): 28.6 ± 12.5 µM
- Kd ([3]; without DTT): 1.23 µM
- Kd (AMPKα2 (T172D)–α2KD; +3 mM DTT): 9.01 ± 1.85 µM
- Kd (AMPKα2 (T172D)–α2KD; - DTT): 8.65 ± 1.38 µM
- Kd [4]: 21.8 ± 8.51 µM
